We go through 5 compounds from patent US7112594B2, “Fused bicyclic amide compounds and medicinal use thereof” (Mitsubishi Pharma Corporation, priority 2000, dated 2006).

One data set deals with rat lymphocytes. Nature of the data set: Proliferation of rat lymphocytes stimulated by PMA and calcium ionophore A23187 (tritium thymidine uptake). The following applies: Lymphocyte, PMA 10 ng/ml and A23187 100 ng/ml. It is filed as cell-based. As to the method:
An RPMI1640 medium (Sigma) was used as a medium, to which kanamycin sulfate (60 μg/ml) and penicillin G potassium (100 units/ml) were added, and then 10% of fetal calf serum (FCS, Gibco) inactivated at 56° C. for 30 min was added and used for the test. The compound of the present invention or a pharmaceutically acceptable salt thereof was dissolved in dimethyl sulfoxide and diluted with the 10% FCS-containing RPMI1640 medium to a desired concentration and used for the test.
The spleens were aseptically removed from 6-week-old male F344 rats or LEW rats (Charles River Japan, Inc.) and minced with tweezers in RPMI1640 medium and then prepared into a single cell suspension of splenic cell. After hematolysis by a hypotonicity treatment using a 9:1 mixed solution of 0.83% aqueous ammonium chloride solution and Tris-HCl buffer (pH 7.65), the suspension was passed through a nylon wool column to give nylon non-adhesive T cell concentration fraction for use. The cell suspension prepared using 10% FCS-containing RPMI1640 medium was added to a flat 96 well microtest plate at 5×10^5 cells/well. The compound of the present invention or a pharmaceutically acceptable salt thereof at a concentration of 0.0001-100 μM, 10 ng/ml of PMA and 100 ng/ml of A23187 were added and the mixture was cultured at 37° C., 5% carbon dioxide and 95% air for 44 hr. After the completion of the culture, tritium thymidine (18.5 kBq/well, specific activity: 185 GBq/mmol, Amersham Pharmacia Biotech) was added and the mixture was cultured at 37° C., 5% carbon dioxide, 95% air for further 4 hr. Then using a cell harvester, the cells were recovered on a glass fiber filter, and using a scintillation counter (MicroBeta 1460) for plate, the radioactivity taken into the cells was measured, and the proliferation of rat lymphocyte induced by stimulation with PMA and A23187 was measured. To be specific, the inhibition rate was calculated by the following formula based on average tritium thymidine uptake (cpm) by lymphocyte in the wells to which various concentrations of the compound of the present invention were added. [formula]
Based on the dose-response curve obtained by plotting average value of tritium thymidine uptake (cpm) or inhibition rate in the longitudinal axis and concentration in the horizontal axis, the concentration (IC50) of the compound that inhibits the level to 50% of the value of the control group was determined by nonlinear regression.

Data set [1] deals with type II collagen induced arthritis. Nature of the data set: Type II collagen induced arthritis in DBA/1J mouse. It is filed as in vivo. To be noted: repeated oral administration.

One may read the IC50 as the concentration that gives 50% inhibition. `CC(C)c1ccc2c(O)c(C(=O)Nc3ccc(OCC(C)(C)C)c(C#N)c3)sc2n1` [Example 28, N-(3-cyano-4-neopentyloxyphenyl)-3-hydroxy-6-isopropylthieno[2,3-b]pyridine-2-carboxamide]: the IC50 with rat lymphocytes came to 2000 nM.
On the same count and under the same terms, then `N#Cc1cc(NC(=O)c2cc3ccccc3o2)ccc1N1CCC(CCO)CC1` [Example 20, N-{3-cyano-4-[4-(2-hydroxyethyl)piperidin-1-yl]phenyl}benzo[b]furan-2-carboxamide], with 230 nM.
On the same count and under the same terms, then `Cc1[nH]c2ccc(F)cc2c1C(=O)Nc1ccc(Oc2ccccc2)c(C#N)c1` [Example 6, N-(3-cyano-4-phenoxyphenyl)-5-fluoro-2-methyl-1H-indole-3-carboxamide], with 390 nM; and `N#Cc1cc(NC(=O)c2cc3ccccc3s2)ccc1N1CCN(CCO)CC1` [Example 11, N-[3-cyano-4-(4-(2-hydroxyethyl)piperazin-1-yl)phenyl]benzo[b]thiophene-2-carboxamide], with 1500 nM.
As for `Cc1c(C(=O)Nc2ccc(C(F)(F)F)cc2)cnn1-c1ccc(F)cc1` [1-(4-fluorophenyl)-N-(4-trifluoromethylphenyl)-5-methylpyrazole-4-carboxamide], the “improvement of severity of developed arthritis, swelling of the limbs or destruction of joint” value in data set [1] (10 mg/kg body weight) was “did not improve”. For the same compound, the death entry in data set [1] (30 mg/kg body weight) is recorded as “confirmed death”.
